Columns and labels:
Format in all cases: in vivo
[1] = tested on: barnyardgrass (Echinochloa crus-galli); test: Test A preemergence, directed soil spray, visual injury rating; details: 0 is no effect, 100 is complete control
How it was run: (§1)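 Seeds sown in a loam soil–sand blend received a directed preemergence soil spray of test chemical in a non-phytotoxic solvent mixture with surfactant. Postemergence plants were sprayed at 2 to 10 cm, one- to two-leaf stage. After approximately 10 d in greenhouse, injury was visually rated 0 (no effect) to 100 (complete control) against untreated controls.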

[2] = tested on: foxtail, giant (giant foxtail, Setaria faberii); test: as above; details: 0 is no effect, 100 is complete control
How it was run: as §1

[3] = tested on: kochia (Kochia scoparia); test: as above; details: 0 is no effect, 100 is complete control
How it was run: as §1

[4] = tested on: pigweed (Amaranthus retroflexus); test: as above; details: 0 is no effect, 100 is complete control
How it was run: as §1

[5] = tested on: ragweed (common ragweed, Ambrosia elatior); test: as above; details: 0 is no effect, 100 is complete control
How it was run: as §1

[6] = tested on: ryegrass, It. (Italian ryegrass, Lolium multiflorum); test: as above; details: 0 is no effect, 100 is complete control
How it was run: as §1

[7] = tested on: barnyardgrass (Echinochloa crus-galli); test: Test B flooded paddy test, visual rating; details: Flood, 250 g ai/ha, applied to paddy water, rated after 13 to 15 d
How it was run: (§2)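 Plants at the 2-leaf stage were flooded to 3 cm above soil, and test compounds were applied directly into the paddy water, which was held at that depth throughout. After 13 to 15 d in a greenhouse, injury was rated visually against untreated controls on a 0–100 scale (0 no effect, 100 complete control).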

[8] = tested on: ducksalad (Heteranthera limosa); test: Test B flooded paddy test, visual rating; details: Flood, 250 g ai/ha, applied to paddy water, rated after 13 to 15 d
How it was run: as §2

[9] = tested on: rice (Oryza sativa); test: Test B flooded paddy test, visual rating; details: Flood, 250 g ai/ha, applied to paddy water, rated after 13 to 15 d
How it was run: as §2

[10] = tested on: sedge, umbrella (small-flower umbrella sedge, Cyperus difformis); test: Test B flooded paddy test, visual rating; details: Flood, 250 g ai/ha, applied to paddy water, rated after 13 to 15 d
How it was run: as §2

[11] = tested on: barnyardgrass (Echinochloa crus-galli); test: Test A postemergence application, visual injury rating; details: 0 to 100 scale, 0 no effect, 100 complete control
How it was run: as §1

[12] = tested on: blackgrass (Alopecurus myosuroides); test: as above; details: 0 to 100 scale, 0 no effect, 100 complete control
How it was run: as §1

[13] = tested on: corn (Zea mays); test: as above; details: 0 to 100 scale, 0 no effect, 100 complete control
How it was run: as §1

[14] = tested on: foxtail, giant (giant foxtail, Setaria faberii); test: as above; details: 0 to 100 scale, 0 no effect, 100 complete control
How it was run: as §1

[15] = tested on: galium (catchweed bedstraw, Galium aparine); test: as above; details: 0 to 100 scale, 0 no effect, 100 complete control
How it was run: as §1

[16] = tested on: kochia (Kochia scoparia); test: as above; details: 0 to 100 scale, 0 no effect, 100 complete control
How it was run: as §1

[17] = tested on: pigweed (Amaranthus retroflexus); test: as above; details: 0 to 100 scale, 0 no effect, 100 complete control
How it was run: as §1

[18] = tested on: ragweed (common ragweed, Ambrosia elatior); test: as above; details: 0 to 100 scale, 0 no effect, 100 complete control
How it was run: as §1

[19] = tested on: ryegrass, It. (Italian ryegrass, Lolium multiflorum); test: as above; details: 0 to 100 scale, 0 no effect, 100 complete control
How it was run: as §1

[20] = tested on: wheat (Triticum aestivum); test: as above; details: 0 to 100 scale, 0 no effect, 100 complete control
How it was run: as §1

Structure (SMILES)	Plant response rating (0 to 100 scale), Barnyardgrass ([1]; 31 g ai/ha)	Plant response rating (0 to 100 scale), Barnyardgrass ([1]; 125 g ai/ha)	Plant response rating (0 to 100 scale), Foxtail, Giant ([2]; 31 g ai/ha)	Plant response rating (0 to 100 scale), Foxtail, Giant ([2]; 125 g ai/ha)	Plant response rating (0 to 100 scale), Kochia ([3]; 31 g ai/ha)	Plant response rating (0 to 100 scale), Kochia ([3]; 125 g ai/ha)	Plant response rating (0 to 100 scale), Pigweed ([4]; 31 g ai/ha)	Plant response rating (0 to 100 scale), Pigweed ([4]; 125 g ai/ha)	Plant response rating (0 to 100 scale), Ragweed ([5]; 31 g ai/ha)	Plant response rating (0 to 100 scale), Ragweed ([5]; 125 g ai/ha)	Plant response rating (0 to 100 scale), Ryegrass, It. ([6]; 31 g ai/ha)	Plant response rating (0 to 100 scale), Ryegrass, It. ([6]; 125 g ai/ha)	Barnyardgrass plant response rating (0 to 100 scale, 0 is no effect, 100 is complete control) [7]	Ducksalad plant response rating (0 to 100 scale, 0 is no effect, 100 is complete control) [8]	Rice plant response rating (0 to 100 scale, 0 is no effect, 100 is complete control) [9]	Sedge, Umbrella plant response rating (0 to 100 scale, 0 is no effect, 100 is complete control) [10]	Barnyardgrass plant response rating ([11]; 31 g ai/ha)	Barnyardgrass plant response rating ([11]; 125 g ai/ha)	Blackgrass plant response rating ([12]; 31 g ai/ha)	Blackgrass plant response rating ([12]; 125 g ai/ha)	other results
Cn1nc(Cl)c(O)c(-c2cccc3[nH]nnc23)c1=O [Compound 38]	0	0	0	0	0	0	0	0	0	0	0	0	0	0	0	0	0	0	0	0	Corn plant response rating ([13]; 31 g ai/ha): 0; Corn plant response rating ([13]; 125 g ai/ha): 0; Foxtail, Giant plant response rating ([14]; 31 g ai/ha): 0; Foxtail, Giant plant response rating ([14]; 125 g ai/ha): 0; Galium plant response rating ([15]; 31 g ai/ha): 0; Galium plant response rating ([15]; 125 g ai/ha): 0; Kochia plant response rating ([16]; 31 g ai/ha): 0; Kochia plant response rating ([16]; 125 g ai/ha): 0; Pigweed plant response rating ([17]; 31 g ai/ha): 0; Pigweed plant response rating ([17]; 125 g ai/ha): 0; Ragweed plant response rating ([18]; 31 g ai/ha): 0; Ragweed plant response rating ([18]; 125 g ai/ha): 0; Ryegrass, It. plant response rating ([19]; 31 g ai/ha): 0; Ryegrass, It. plant response rating ([19]; 125 g ai/ha): 0; Wheat plant response rating ([20]; 31 g ai/ha): 0; Wheat plant response rating ([20]; 125 g ai/ha): 0
Cc1cc2c(Cl)ccc(-c3c(OC(=O)c4ccccc4)c(C)nn(C)c3=O)c2o1 [Compound 39]	0	0	0	0	0	0	0	0	0	0	10	50	0	50	0	0	0	10	0	20	Corn plant response rating ([13]; 31 g ai/ha): 0; Corn plant response rating ([13]; 125 g ai/ha): 0; Foxtail, Giant plant response rating ([14]; 31 g ai/ha): 0; Foxtail, Giant plant response rating ([14]; 125 g ai/ha): 10; Galium plant response rating ([15]; 31 g ai/ha): 30; Galium plant response rating ([15]; 125 g ai/ha): 90; Kochia plant response rating ([16]; 31 g ai/ha): 0; Kochia plant response rating ([16]; 125 g ai/ha): 0; Pigweed plant response rating ([17]; 31 g ai/ha): 0; Pigweed plant response rating ([17]; 125 g ai/ha): 0; Ragweed plant response rating ([18]; 31 g ai/ha): 0; Ragweed plant response rating ([18]; 125 g ai/ha): 10; Ryegrass, It. plant response rating ([19]; 31 g ai/ha): 20; Ryegrass, It. plant response rating ([19]; 125 g ai/ha): 30; Wheat plant response rating ([20]; 31 g ai/ha): 0; Wheat plant response rating ([20]; 125 g ai/ha): 0
COC(=O)Oc1c(C)nn(C)c(=O)c1-c1ccc(Cl)c2cc(C)oc12 [Compound 40]	0	20	0	20	0	0	0	60	0	50	80	90	0	0	0	0	10	20	0	20	Corn plant response rating ([13]; 31 g ai/ha): 0; Corn plant response rating ([13]; 125 g ai/ha): 10; Foxtail, Giant plant response rating ([14]; 31 g ai/ha): 10; Foxtail, Giant plant response rating ([14]; 125 g ai/ha): 20; Galium plant response rating ([15]; 31 g ai/ha): 90; Galium plant response rating ([15]; 125 g ai/ha): 100; Kochia plant response rating ([16]; 31 g ai/ha): 0; Kochia plant response rating ([16]; 125 g ai/ha): 0; Pigweed plant response rating ([17]; 31 g ai/ha): 20; Pigweed plant response rating ([17]; 125 g ai/ha): 40; Ragweed plant response rating ([18]; 31 g ai/ha): 20; Ragweed plant response rating ([18]; 125 g ai/ha): 40; Ryegrass, It. plant response rating ([19]; 31 g ai/ha): 40; Ryegrass, It. plant response rating ([19]; 125 g ai/ha): 70; Wheat plant response rating ([20]; 31 g ai/ha): 0; Wheat plant response rating ([20]; 125 g ai/ha): 0

From patent US10750743B2, “Pyridazinone herbicides” (E.I. DU PONT DE NEMOURS AND COMPANY, priority 2015, dated 2020)
